{"source": "ChEMBL document CHEMBL1142399", "about": "“Water-soluble pleuromutilin derivative with excellent in vitro and in vivo antibacterial activity against gram-positive pathogens” (J Med Chem, 2008)", "key": {"[1]": {"tested_on": "Staphylococcus saccharolyticus", "assay": "Antibacterial activity against Staphylococcus saccharolyticus GAI 5520 by broth microdilution method", "assay_type": "functional"}, "[2]": {"tested_on": "Streptococcus intermedius", "assay": "Antibacterial activity against Streptococcus intermedius GAI 7416 by broth microdilution method", "assay_type": "functional"}, "Atopobium parvulum": {"tested_on": "Atopobium parvulum", "assay": "Antibacterial activity against Atopobium parvulum GAI 5542 by broth microdilution method", "assay_type": "functional", "conditions": "Lancefieldella parvula"}, "[3]": {"tested_on": "Peptoniphilus asaccharolyticus", "assay": "Antibacterial activity against Peptostreptococcus asaccharolyticus GAI 5534 by broth microdilution method", "assay_type": "functional"}, "[4]": {"tested_on": "Peptostreptococcus anaerobius", "assay": "Antibacterial activity against Peptostreptococcus anaerobius GAI 5506 by broth microdilution method", "assay_type": "functional"}, "Finegoldia magna": {"tested_on": "Finegoldia magna", "assay": "Antibacterial activity against Peptostreptococcus magnus GAI 5528 by broth microdilution method", "assay_type": "functional"}, "Clostridium perfringens": {"tested_on": "Clostridium perfringens", "assay": "Antibacterial activity against Clostridium perfringens GAI 5526 by broth microdilution method", "assay_type": "functional"}, "Cutibacterium acnes": {"tested_on": "Cutibacterium acnes", "assay": "Antibacterial activity against Propionibacterium acnes GAI 5568 by broth microdilution method", "assay_type": "functional"}, "[5]": {"tested_on": "Propionibacterium granulosum", "assay": "Antibacterial activity against Propionibacterium granulosum GAI 7414 by broth microdilution method", "assay_type": "functional", "conditions": "Cutibacterium granulosum"}, "[6]": {"tested_on": "Mycoplasmoides pneumoniae", "assay": "Antibacterial activity against Mycoplasma pneumoniae FH Liu by broth microdilution method", "assay_type": "functional"}, "[7]": {"tested_on": "Mycoplasmoides pneumoniae", "assay": "Antibacterial activity against Mycoplasma pneumoniae Mac by broth microdilution method", "assay_type": "functional"}, "[8]": {"tested_on": "Staphylococcus epidermidis", "assay": "Antibacterial activity against Staphylococcus epidermidis ATCC 12228 by broth microdilution method", "assay_type": "functional"}, "Streptococcus pneumoniae [9]": {"tested_on": "Streptococcus pneumoniae", "assay": "Antibacterial activity against penicillin-resistant Streptococcus pneumoniae KT2524 in mouse dosed iv 1 hr after infection", "assay_type": "functional"}, "Streptococcus pyogenes": {"tested_on": "Streptococcus pyogenes", "assay": "Antibacterial activity against Streptococcus pyogenes ATCC 12344 by broth microdilution method", "assay_type": "functional"}, "Enterococcus faecium [10]": {"tested_on": "Enterococcus faecium", "assay": "Antibacterial activity against vancomycin-resistant Enterococcus faecium KU1778 clinical isolate by broth microdilution method", "assay_type": "functional"}, "Moraxella catarrhalis": {"tested_on": "Moraxella catarrhalis", "assay": "Antibacterial activity against Moraxella catarrhalis K1209 by broth microdilution method", "assay_type": "functional"}, "Haemophilus influenzae": {"tested_on": "Haemophilus influenzae", "assay": "Antibacterial activity against Haemophilus influenzae TH13 by broth microdilution method", "assay_type": "functional"}, "Staphylococcus aureus [11]": {"tested_on": "Staphylococcus aureus", "assay": "Antibacterial activity against methicillin-susceptible Staphylococcus aureus Smith in mouse dosed iv 1 hr after infection", "assay_type": "functional"}, "Staphylococcus aureus [12]": {"tested_on": "Staphylococcus aureus", "assay": "Antibacterial activity against methicillin-resistant Staphylococcus aureus KT0116 in mouse dosed iv 1 hr after infection", "assay_type": "functional"}, "Streptococcus pneumoniae [13]": {"tested_on": "Streptococcus pneumoniae", "assay": "Antibacterial activity against penicillin-susceptible Streptococcus pneumoniae ATCC 49619 in mouse dosed iv 1 hr after infection", "assay_type": "functional", "conditions": "ATCC 49619, iv"}, "Staphylococcus aureus [14]": {"tested_on": "Staphylococcus aureus", "assay": "microbe, parasite or virus in culture"}, "Staphylococcus aureus [15]": {"tested_on": "Staphylococcus aureus", "assay": "microbe, parasite or virus in culture", "conditions": "Smith"}, "Staphylococcus aureus [16]": {"tested_on": "Staphylococcus aureus", "assay": "microbe, parasite or virus in culture", "remark": "listed apart in the source"}, "Staphylococcus aureus [17]": {"tested_on": "Staphylococcus aureus", "assay": "microbe, parasite or virus in culture", "conditions": "KMP9"}, "Enterococcus faecalis": {"tested_on": "Enterococcus faecalis", "assay": "microbe, parasite or virus in culture", "conditions": "ATCC 29212"}, "Enterococcus faecium [18]": {"tested_on": "Enterococcus faecium", "assay": "microbe, parasite or virus in culture", "conditions": "ATCC 19434"}}}
{"compound": "CC[C@H]1OC(=O)[C@H](C)[C@@H](O[C@H]2C[C@@](C)(OC)[C@@H](O)[C@H](C)O2)[C@H](C)[C@@H](O[C@@H]2O[C@H](C)C[C@H](N(C)C)[C@H]2O)[C@](C)(OC)C[C@@H](C)C(=O)[C@H](C)[C@@H](O)[C@]1(C)O", "note": "[CLARITHROMYCIN]", "values": [{"measurement": "MIC", "setting": "[1]", "value": 0.063, "unit": "µg/mL"}, {"measurement": "MIC", "setting": "[2]", "value": "< 0.004", "unit": "µg/mL"}, {"measurement": "MIC", "setting": "Atopobium parvulum", "value": "< 0.004", "unit": "µg/mL"}, {"measurement": "MIC", "setting": "[3]", "value": "> 128", "unit": "µg/mL"}, {"measurement": "MIC", "setting": "[4]", "value": "< 0.004", "unit": "µg/mL"}, {"measurement": "MIC", "setting": "Finegoldia magna", "value": 2, "unit": "µg/mL"}, {"measurement": "MIC", "setting": "Clostridium perfringens", "value": 1, "unit": "µg/mL"}, {"measurement": "MIC", "setting": "Cutibacterium acnes", "value": "< 0.004", "unit": "µg/mL"}, {"measurement": "MIC", "setting": "[5]", "value": "< 0.004", "unit": "µg/mL"}, {"measurement": "MIC", "setting": "[6]", "value": 0.016, "unit": "µg/mL"}, {"measurement": "MIC", "setting": "[7]", "value": 0.016, "unit": "µg/mL"}]}
{"compound": "C[C@H]1COc2c(N3CCN(C)CC3)c(F)cc3c(=O)c(C(=O)O)cn1c23.C[C@H]1COc2c(N3CCN(C)CC3)c(F)cc3c(=O)c(C(=O)O)cn1c23.O", "note": "[LEVOFLOXACIN]", "values": [{"measurement": "MIC", "setting": "[8]", "value": 0.25, "unit": "µg/mL"}, {"measurement": "ED50", "setting": "Streptococcus pneumoniae [9]", "value": "> 100", "unit": "mg/kg"}, {"measurement": "MIC", "setting": "Streptococcus pyogenes", "value": 0.5, "unit": "µg/mL"}, {"measurement": "MIC", "setting": "Enterococcus faecium [10]", "value": 64, "unit": "µg/mL"}, {"measurement": "MIC", "setting": "Moraxella catarrhalis", "value": 0.063, "unit": "µg/mL"}, {"measurement": "MIC", "setting": "Haemophilus influenzae", "value": 0.032, "unit": "µg/mL"}, {"measurement": "MIC", "setting": "[1]", "value": 0.125, "unit": "µg/mL"}, {"measurement": "MIC", "setting": "[2]", "value": 0.5, "unit": "µg/mL"}, {"measurement": "MIC", "setting": "Atopobium parvulum", "value": 0.25, "unit": "µg/mL"}, {"measurement": "MIC", "setting": "[3]", "value": 2, "unit": "µg/mL"}, {"measurement": "MIC", "setting": "[4]", "value": 0.125, "unit": "µg/mL"}, {"measurement": "MIC", "setting": "Finegoldia magna", "value": 0.125, "unit": "µg/mL"}, {"measurement": "MIC", "setting": "Clostridium perfringens", "value": 0.25, "unit": "µg/mL"}, {"measurement": "MIC", "setting": "Cutibacterium acnes", "value": 0.25, "unit": "µg/mL"}, {"measurement": "MIC", "setting": "[5]", "value": 0.25, "unit": "µg/mL"}, {"measurement": "MIC", "setting": "[6]", "value": 0.125, "unit": "µg/mL"}, {"measurement": "MIC", "setting": "[7]", "value": 0.063, "unit": "µg/mL"}, {"measurement": "ED50", "setting": "Staphylococcus aureus [11]", "value": 0.78, "unit": "mg/kg"}, {"measurement": "ED50", "setting": "Staphylococcus aureus [12]", "value": "> 100", "unit": "mg/kg"}, {"measurement": "ED50", "setting": "Streptococcus pneumoniae [13]", "value": 24.7, "unit": "mg/kg"}, {"measurement": "MIC", "setting": "Staphylococcus aureus [14]", "value": 0.125, "unit": "µg/mL"}, {"measurement": "MIC", "setting": "Staphylococcus aureus [15]", "value": 0.125, "unit": "µg/mL"}, {"measurement": "MIC", "setting": "Staphylococcus aureus [16]", "value": "> 128", "unit": "µg/mL"}, {"measurement": "MIC", "setting": "Staphylococcus aureus [17]", "value": "> 128", "unit": "µg/mL"}, {"measurement": "MIC", "setting": "Enterococcus faecalis", "value": 0.5, "unit": "µg/mL"}, {"measurement": "MIC", "setting": "Enterococcus faecium [18]", "value": 4, "unit": "µg/mL"}]}
